Laboratory results reported in publication PMC4880308, “Elongation Factor Tu Prevents Misediting of Gly-tRNA(Gly) Caused by the Design Behind the Chiral Proofreading Site of D-Aminoacyl-tRNA Deacylase” (PLoS Biology, 2016).

B1: D-aminoacyl-tRNA deacylase from Plasmodium falciparum (enzyme)
chain: MRVVIQRVKGAILSVRKENIGENEKELEIISEIKNGLICFLGIHKNDTWEDALYIIRKCLNLRLWNNDNKTWDKNVKDLNYELLIVSQFTLFGNTKKGNKPDFHLAKEPNEALIFYNKIIDEFKKQYNDDKIKIGKFGNYMNIDVTNDGPVTIYIDTHDINLNK
notes: D-aminoacyl-tRNA deacylase (DTD), Plasmodium falciparum, UniProt Q8IIS0; no tag is stated for the crystallised protein; The crystal also holds the small-molecule ligand Gly3AA; also called PfDTD; DTD; source: cloned, expressed, and purified as described in [15]

Assays:
[1] = target: T1, PfDTD (D-aminoacyl-tRNA deacylase from Plasmodium falciparum) (Plasmodium falciparum, UniProt Q8IIS0); experiment: 2D […]-1H TROSY NMR titration (chemical shift perturbation); type: binding; conditions: substrate analog; 50 mM HEPES pH 7.0, 50 mM NaCl; 0.2 mM protein, up to 3 mM ligand
T1 construct: gene DTD; recombinant; C-terminal His-tagged U-15N protein for NMR; dimer with cross-subunit Gly-cisPro motif in the active site
T1 sequence (Q8IIS0 1-164): B1 chain

[2] = target: the molecule itself; experiment: crystal structure; co-crystal of PfDTD with Gly3AA (molar ratio 1:20), P2(1), eight monomers in the asymmetric unit; 0.1 M HEPES pH 7.5, 0.4 M NaCl, 28% PEG3350

| Molecule | 2D 15N-1H TROSY NMR titration (chemical shift perturbation) [1] | binding result [2] |
| --- | --- | --- |
| C[C@@H](N)C(=O)N[C@H]1[C@@H](O)[C@H](n2cnc3c(N)ncnc32)O[C@@H]1CO [D-Ala3AA, D-alanyl-3′-aminoadenosine] | the data indicated binding of D-Ala3AA but not of L-Ala3AA | – |
| B1 | – | binds |
